The test system of series [1] is Echinochloa crus-galli. Kind of series: Herbicidal activity by field foliage treatment (Test example 3). In kind it is in vivo. On the set-up: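 index 0 to 10 in 10% steps of herbicidal effect with 10 meaning complete death and 0 below 10%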. To be noted: 1000 g effective component per hectare, day 14 after the treatment. In a few lines:
(§1)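 Potted field-soil plants grown 2 weeks in a greenhouse were sprayed over the whole foliage with diluted wettable powder at 1000 L/ha, delivering 1000 g active ingredient per hectare. Herbicidal effect scored by visual criteria 14 days after treatment.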

Series [2] deals with A. retroflexus. Kind of series: Herbicidal activity by field soil treatment (Test example 2). In kind it is in vivo. On the set-up: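 index 0 to 10 in 10% steps of herbicidal effect with 10 meaning complete death and 0 below 10%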. To be noted: 1000 g effective component per hectare, day 21 after the treatment. In a few lines: (§2)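 Seeds were sown in field soil in 80 cm^2 pots and covered with soil. A water-diluted wettable powder was then sprayed onto the soil surface at 1000 liters per hectare, delivering 1000 g active ingredient per hectare. Plants grew in a greenhouse, and herbicidal effect was scored against set criteria 21 days after treatment.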

For series [3], the system named is Echinochloa crus-galli. The series is described as above. Type of series: in vivo. More on the design: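 index 0 to 10 in 10% steps of herbicidal effect with 10 meaning complete death and 0 below 10%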. The conditions noted are these: 1000 g effective component per hectare, day 21 after the treatment. In a few lines: as §2
In series [4] the test system is Indian millet. Described as above. Type of series: in vivo. More on the design: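 index 0 to 10 in 10% steps of herbicidal effect with 10 meaning complete death and 0 below 10%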. The conditions noted are these: 1000 g effective component per hectare, day 21 after the treatment. The method, boiled down: as §2
The test system of series [5] is A. retroflexus. Kind of series: Herbicidal activity by field foliage treatment (Test example 3). To be noted: 1000 g effective component per hectare, day 14 after the treatment. Type of series: in vivo. More on the design: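 index 0 to 10 in 10% steps of herbicidal effect with 10 meaning complete death and 0 below 10%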. The method, boiled down:
(§3)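 Plants were grown from seed in field soil in a greenhouse for 2 weeks, then sprayed over the whole foliage with a water-diluted wettable powder at 1000 L/ha spray volume, delivering 1000 g active ingredient per hectare. Herbicidal effect was scored on day 14 after treatment.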

In series [6] the test system is Indian millet. Described as above. Type of series: in vivo. To be noted: 1000 g effective component per hectare, day 14 after the treatment. On the set-up: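 index 0 to 10 in 10% steps of herbicidal effect with 10 meaning complete death and 0 below 10%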. In a few lines: as §3
The test system of the next series is Setaria viridis. The series is described as above. The conditions noted are these: 1000 g effective component per hectare, day 14 after the treatment. In kind it is in vivo. The method, boiled down:
as §1

A further series relates to foxtail. Nature of the series: Herbicidal activity by field soil treatment (Test example 2). In kind it is in vivo. The conditions noted are these: 1000 g effective component per hectare, day 21 after the treatment. In a few lines:
as §2

The test system of another series is Scirpus juncoides Rocxb. Kind of series: Herbicidal activity by paddy field soil treatment (Test Example 1). In kind it is in vivo. On the set-up: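 index 0 to 10 in 10% steps of herbicidal effect with 10 meaning complete death and 0 below 10%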. To be noted: applied on water surface, 1000 g of effective component per hectare, day 21 after the treatment. The method, boiled down:
(§4)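 Seeds were sown in puddled paddy soil in pots flooded to 3 cm water depth; the next day a water-diluted wettable powder was applied to the water surface at 1000 g active ingredient/ha. Plants were grown in a greenhouse and herbicidal effect scored by graded criteria on day 21 after treatment.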

A further series relates to Echinochloa oryzicola. Described as above. The conditions noted are these: 1000 g of effective component per hectare, evaluated on day 21 after the treatment, criteria of Table 72. More on the design: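 index 0 to 10 in 10% steps of herbicidal effect with 10 meaning complete death and 0 below 10%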. Type of series: in vivo. The method, boiled down:
as §4

Another series relates to Monochoria vaginalis. Described as above. In kind it is in vivo. On the set-up: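 index 0 to 10 in 10% steps of herbicidal effect with 10 meaning complete death and 0 below 10%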. To be noted: 1000 g of effective component per hectare, evaluated on day 21 after the treatment, criteria of Table 72. In a few lines: as §4
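Wherever herbicidal effect index, Setaria viridis is given: index 0 to 10 in 10% steps of herbicidal effect with 10 meaning complete death and 0 below 10%.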

The melting point is the temperature of the solid-liquid transition. Regarding `Cn1nc(C(=O)O)c(=O)n(-c2ccccc2)c1=O` [V-50, 2-methyl-3,5-dioxo-4-phenyl-2,3,4,5-tetrahydro-1,2,4-triazine-6-carboxylic acid], the melting point was 195 to 198 °C.

For `Cn1nc(C(=O)O)c(=O)n(-c2ccccc2C#N)c1=O` [V-72, 2-methyl-3,5-dioxo-4-(2-cyanophenyl)-2,3,4,5-tetrahydro-1,2,4-triazine-6-carboxylic acid], the melting point was 213 to 215 °C.

Consider `Cn1nc(C(=O)C2=C(O)CCCC2=O)c(=O)n(-c2ccccc2F)c1=O` [I-54], for which the “herbicidal effect index, Echinochloa crus-galli” value in the series on Echinochloa crus-galli [1] and in the series on Echinochloa crus-galli [3] was 10 throughout. For the same compound, the “herbicidal effect index, Amaranthus retroflexus” value with A. retroflexus [2] and in the series with A. retroflexus [5] was 10 in each case. Also, the “herbicidal effect index, Abutilon theophrasti” value with Indian millet [4] and in the series on Indian millet [6] was 10 throughout. Further, the “herbicidal effect index, Setaria viridis” value in the series with Setaria viridis and in the series on foxtail was 10 throughout. For the same compound, in the series on Scirpus juncoides Rocxb., the “herbicidal effect index, S. juncoides Rocxb.” value came to 10. For the same compound, the “Herbicidal effects index number, Echinochloa oryzicola” value in the series on Echinochloa oryzicola is listed as 10. Moreover, the “Herbicidal effects index number, Monochoria vaginalis” value in the series with Monochoria vaginalis came to 10.

As for `Cn1nc(C(=O)C2=C(O)CCCC2=O)c(=O)n(-c2cc(F)cc(F)c2)c1=O` [I-76], the “herbicidal effect index, Echinochloa crus-galli” value in the series with Echinochloa crus-galli [1] and with Echinochloa crus-galli [3] was 10 throughout. The “herbicidal effect index, Amaranthus retroflexus” value with A. retroflexus [2] and in the series on A. retroflexus [5] was 10 throughout. Also, the “herbicidal effect index, Abutilon theophrasti” value with Indian millet [4] and in the series with Indian millet [6] was 10 in each case. Also, the “herbicidal effect index, Setaria viridis” value in the series on Setaria viridis and in the series on foxtail was 9 throughout. Moreover, in the series with Scirpus juncoides Rocxb., the “herbicidal effect index, S. juncoides Rocxb.” value is reported as 10. Moreover, the “Herbicidal effects index number, Echinochloa oryzicola” value in the series with Echinochloa oryzicola is on record as 10. In the series with Monochoria vaginalis, the “Herbicidal effects index number, Monochoria vaginalis” value was determined as 10.

`Cc1ccc(-n2c(=O)c(C(=O)C3=C(O)CCCC3=O)nn(C)c2=O)cc1F` [I-105]: the “herbicidal effect index, Echinochloa crus-galli” value stood at 10 in the series with Echinochloa crus-galli [1] and 9 in the series on Echinochloa crus-galli [3]. The “herbicidal effect index, Amaranthus retroflexus” value in the series on A. retroflexus [2] and in the series on A. retroflexus [5] was 10 in each case. Besides, the figures for the “herbicidal effect index, Abutilon theophrasti” value in the series with Indian millet [4] and with Indian millet [6] were 9 and 10, respectively. The “herbicidal effect index, Setaria viridis” value in the series on Setaria viridis and in the series on foxtail was 7 throughout. Further, in the series on Scirpus juncoides Rocxb., the “herbicidal effect index, S. juncoides Rocxb.” value is on record as 10. The “Herbicidal effects index number, Echinochloa oryzicola” value in the series with Echinochloa oryzicola worked out at 10. Further, the “Herbicidal effects index number, Monochoria vaginalis” value in the series on Monochoria vaginalis was 10.

In the case of `Cn1nc(C(=O)C2=C(O)CCCC2=O)c(=O)n(-c2ccc(F)c(F)c2)c1=O` [I-75], the “herbicidal effect index, Echinochloa crus-galli” value is on record as 10 in the series with Echinochloa crus-galli [1] and 9 in the series on Echinochloa crus-galli [3]. The “herbicidal effect index, Amaranthus retroflexus” value in the series with A. retroflexus [2] and in the series on A. retroflexus [5] was 10 each time. Also, the “herbicidal effect index, Abutilon theophrasti” value with Indian millet [4] and in the series with Indian millet [6] was 10 each time. Further, the “herbicidal effect index, Setaria viridis” value in the series on Setaria viridis is recorded as 10; in the series on foxtail, 7. Moreover, in the series on Scirpus juncoides Rocxb., the “herbicidal effect index, S. juncoides Rocxb.” value amounted to 10. The “Herbicidal effects index number, Echinochloa oryzicola” value in the series on Echinochloa oryzicola came to 10. For the same compound, the “Herbicidal effects index number, Monochoria vaginalis” value with Monochoria vaginalis was 10.

For the compound `Cn1nc(C(=O)C2=C(O)CCCC2=O)c(=O)n(N2CCCCC2)c1=O` [I-304], the “herbicidal effect index, Echinochloa crus-galli” value with Echinochloa crus-galli [1] and with Echinochloa crus-galli [3] was 10 throughout. Moreover, the “herbicidal effect index, Amaranthus retroflexus” value with A. retroflexus [2] and with A. retroflexus [5] was 10 each time. Further, the “herbicidal effect index, Abutilon theophrasti” value with Indian millet [4] turned out to be 10; in the series with Indian millet [6], 9. Besides, the entries for the “herbicidal effect index, Setaria viridis” value in the series with Setaria viridis and with foxtail were 10 and 9, respectively. For the same compound, in the series on Scirpus juncoides Rocxb., the “herbicidal effect index, S. juncoides Rocxb.” value is given as 10. The “Herbicidal effects index number, Echinochloa oryzicola” value in the series on Echinochloa oryzicola is 10. In the series on Monochoria vaginalis, the “Herbicidal effects index number, Monochoria vaginalis” value was 10.

Turning to `Cn1nc(C(=O)C2=C(O)CCCC2=O)c(=O)n(-c2cccc(Cl)c2)c1=O` [I-52], the “herbicidal effect index, Echinochloa crus-galli” value in the series with Echinochloa crus-galli [1] and in the series with Echinochloa crus-galli [3] was 10 in each case. The “herbicidal effect index, Amaranthus retroflexus” value with A. retroflexus [2] and with A. retroflexus [5] was 10 each time. The “herbicidal effect index, Abutilon theophrasti” value in the series with Indian millet [4] and in the series on Indian millet [6] was 10 in each case. Further, the “herbicidal effect index, Setaria viridis” value in the series with Setaria viridis and in the series with foxtail was 10 in each case. For the same compound, the “herbicidal effect index, S. juncoides Rocxb.” value in the series on Scirpus juncoides Rocxb. is on record as 10. Also, in the series with Echinochloa oryzicola, the “Herbicidal effects index number, Echinochloa oryzicola” value is on record as 10. In addition, the “Herbicidal effects index number, Monochoria vaginalis” value in the series with Monochoria vaginalis amounted to 10.

`Cn1nc(C(=O)C2=C(O)CCCC2=O)c(=O)n(-c2cccnc2Cl)c1=O` [I-276]: the “herbicidal effect index, Echinochloa crus-galli” value is given as 10 in the series on Echinochloa crus-galli [1] and 9 with Echinochloa crus-galli [3]. Further, the “herbicidal effect index, Amaranthus retroflexus” value with A. retroflexus [2] and in the series on A. retroflexus [5] was 10 throughout. Further, the results for the “herbicidal effect index, Abutilon theophrasti” value with Indian millet [4] and with Indian millet [6] were 10 and 9, respectively. Besides, the entries for the “herbicidal effect index, Setaria viridis” value with Setaria viridis and in the series with foxtail were 10 and 9, respectively. Moreover, the “herbicidal effect index, S. juncoides Rocxb.” value in the series with Scirpus juncoides Rocxb. is recorded as 9. The “Herbicidal effects index number, Echinochloa oryzicola” value with Echinochloa oryzicola is 8. The “Herbicidal effects index number, Monochoria vaginalis” value in the series on Monochoria vaginalis amounted to 8.

On to `Cn1nc(C(=O)C2=C(O)CCCC2=O)c(=O)n(-c2cc(Cl)cc(Cl)c2)c1=O` [I-82], for which the “herbicidal effect index, Echinochloa crus-galli” value in the series on Echinochloa crus-galli [1] is 10; in the series with Echinochloa crus-galli [3], 9. The “herbicidal effect index, Amaranthus retroflexus” value in the series with A. retroflexus [2] and in the series with A. retroflexus [5] was 10 in each case. In addition, the results for the “herbicidal effect index, Abutilon theophrasti” value in the series on Indian millet [4] and in the series on Indian millet [6] were 9 and 10, respectively. In addition, the figures for the “herbicidal effect index, Setaria viridis” value in the series on Setaria viridis and with foxtail were 10 and 9, respectively. Besides, the “herbicidal effect index, S. juncoides Rocxb.” value with Scirpus juncoides Rocxb. amounted to 10. In the series on Echinochloa oryzicola, the “Herbicidal effects index number, Echinochloa oryzicola” value was 8. Also, the “Herbicidal effects index number, Monochoria vaginalis” value in the series with Monochoria vaginalis was found to be 10.

As to `Cc1ccc(F)cc1-n1c(=O)c(C(=O)C2=C(O)CCCC2=O)nn(C)c1=O` [I-118], the “herbicidal effect index, Echinochloa crus-galli” value in the series with Echinochloa crus-galli [1] was found to be 9; in the series with Echinochloa crus-galli [3], 10. Moreover, the “herbicidal effect index, Amaranthus retroflexus” value with A. retroflexus [2] and in the series with A. retroflexus [5] was 10 each time. Also, the “herbicidal effect index, Abutilon theophrasti” value came to 9 in the series on Indian millet [4] and 10 in the series on Indian millet [6]. The “herbicidal effect index, Setaria viridis” value amounted to 10 in the series on Setaria viridis and 9 in the series with foxtail. For the same compound, the “herbicidal effect index, S. juncoides Rocxb.” value in the series with Scirpus juncoides Rocxb. is reported as 10. Moreover, the “Herbicidal effects index number, Echinochloa oryzicola” value in the series with Echinochloa oryzicola was found to be 10. The “Herbicidal effects index number, Monochoria vaginalis” value in the series on Monochoria vaginalis was found to be 10.

For `Cn1nc(C(=O)C2=C(O)CCCC2=O)c(=O)n(-c2cc(Cl)ccc2Cl)c1=O` [I-85], the “herbicidal effect index, Echinochloa crus-galli” value with Echinochloa crus-galli [1] and in the series with Echinochloa crus-galli [3] was 9 each time. For the same compound, the “herbicidal effect index, Amaranthus retroflexus” value in the series on A. retroflexus [2] and in the series with A. retroflexus [5] was 10 throughout. In addition, the “herbicidal effect index, Abutilon theophrasti” value in the series with Indian millet [4] and with Indian millet [6] was 10 throughout. Further, the “herbicidal effect index, Setaria viridis” value in the series on Setaria viridis came out at 10; in the series with foxtail, 9. For the same compound, the “herbicidal effect index, S. juncoides Rocxb.” value in the series with Scirpus juncoides Rocxb. is 10. In addition, in the series with Echinochloa oryzicola, the “Herbicidal effects index number, Echinochloa oryzicola” value was determined as 10. For the same compound, the “Herbicidal effects index number, Monochoria vaginalis” value with Monochoria vaginalis was 10.

Source of the values: patent publication US8969554B2, “6-acyl-1,2,4-triazine-3,5-dione derivative and herbicides” (Kumiai Chemical Industry Co., Ltd., priority 2010, dated 2015).
